Key:
cysteine protease = assay: Cysteine protease inhibitory activity, no method given
[1] = tested on: Human Rhinovirus serotype 1A; assay: Cell Culture 3C-Protease Activity Assay (protection of rhinovirus-infected cells); type: cell-based; settings: for IC50: HeLa-H1 cells infected with Human Rhinovirus serotype 1A, 48 hours, alamarBlue cell survival, dilution series 250-0.98 μM, several values per compound = repeat determinations
Procedure: (§1) In this assay, 96 well micro titer plates were seeded with 10^4 HeLa-H1 (ATCC) cells per well and incubated in DMEM+10% FBS (Gibco) for 24 hours at 37° C., saturated humidity and 5% CO2. Human Rhinovirus serotype 1A (ATCC) were titered to produce a 30% cell kill and added to some wells of a 96 well plate, other wells were mock infected with media only, followed by incubation at 33° C., saturated humidity and 5% CO2 for 1 hour. Compounds were dissolved in DMSO, diluted in DMEM and added in a 9 step 2-fold dilution series (250, 125, 62.5, 31.25, 15.63, 7.81, 3.91, 1.95, 0.98 μM) 1 hour after virus treatment. Plates were incubated for 48 hours at 33° C., saturated humidity and 5% CO2 in a final volume of 100 μL FBS free DMEM. Cell survival was measured by the addition of 10 μL of alamarBlue™ (BioSource), incubation at 33° C. for 45 minutes and reading in a fluorescence plate reader, excitation: 544 nm, emission: 590 nm. The inhibitory concentration 50% (IC50) was calculated as the concentration of compound that increased the percentage fluorescence in the compound-treated virus-infected cells to 50% of that produced by compound-free, uninfected cells. The toxicity concentration 50% (TC50) was calculated as the concentration of compound that decreased the percentage fluorescence in the compound-treated, uninfected cells to 50% of the compound-free, uninfected cells. The therapeutic index (Ti) was calculated by dividing the […].

HeLa-H1 cells = assay: Toxicity in uninfected cells of the cell culture 3C-protease assay; type: cell-based; set-up: key to TC50: —: the hyphens indicate no value was able to be calculated (i.e. the drug response did not cross the 50% point); settings: compound-treated uninfected HeLa-H1 cells, 48 hours, alamarBlue, dilution series 250-0.98 μM, several values per compound = repeat determinations; for CC50: read-out: TC50 (the source's name)
Procedure: as §1

[2] = target: T1, human recombinant caspase-3 (Homo sapiens, UniProt P42574); assay: In vitro high throughput caspase-3 assay; type: biochemical; settings: for Ki: calculated from IC50 according to Equation 1, read-out: Ki(app); for IC50: fixed substrate concentration of 55 μM, inhibitors 75 to 0.067 μM in duplicate; for Percent Activity: percentage of the positive control, 20-250 μM test compound, lower = better inhibition, negative = better than control caspase inhibitor
T1 construct: purchased Sigma
T1 sequence (P42574 29-175 limits assumed): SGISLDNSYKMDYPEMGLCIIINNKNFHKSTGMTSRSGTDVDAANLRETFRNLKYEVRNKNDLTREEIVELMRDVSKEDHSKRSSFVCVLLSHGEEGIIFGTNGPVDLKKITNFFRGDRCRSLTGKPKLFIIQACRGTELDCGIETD
T1 sequence (P42574 176-277 limits assumed): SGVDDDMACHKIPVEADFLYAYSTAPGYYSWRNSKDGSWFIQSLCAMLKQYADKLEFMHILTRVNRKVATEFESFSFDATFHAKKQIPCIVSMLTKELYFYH
Procedure: Purified Human recombinant caspase-3, fluorescence labeled substrate (Acetyl-Asp-Glu-Val-Asp-7-amino-4-trifluoromethyl coumarin), and known inhibitor (Z-Asp-Glu-Val-Asp-fluoromethyl ketone) can be purchased from Sigma Chemical Co. (St. Louis, Mo.). The enzyme reactions are carried out at room temperature in 10 mM PIPES pH=7.4, 2 mM EDTA, 0.1% CHAPS, 5 mM DTT reaction buffer. Each well on the 96 well plate contains the above reaction buffer plus 55 μM fluorescence labeled substrate, 0.125 μg caspase-3, and 20-250 μM test compound. Positive and negative controls are present on each assay plate. A standard curve is generated using 7-amino-4-trifluoromethyl coumarin in the concentration range from 0.15 μM to 5.0 μM. The reactions are preferably read every 0.5 hours using a fluorescence microtiter plate reader set for 390 nm excitation and 538 nm emission for the first 4 hours after which the plates are left at room temperature overnight. One reading is taken the next morning as a final measurement.
To determine the caspase inhibitory activity of these compounds, the in vitro high throughput caspase-3 assay presented herein was utilized. Purified human recombinant caspase-3, fluorescence labeled substrate (Acetyl-Asp-Glu-Val-Asp-7-amino-4-trifluoromethyl coumarin), and known inhibitor (Z-Asp-Glu-Val-Asp-fluoromethyl ketone) were purchased from Sigma. The enzyme reactions were carried out at room temperature in 10 mM PIPES pH=7.4, 2 mM EDTA, 0.1% CHAPS, 5 mM DTT reaction buffer. Each well on the 96 well plate contained the above reaction buffer plus 55 μM fluorescence labeled substrate, 0.125 μg caspase-3, and 20-250 μM test compound. Positive and negative controls were present on each assay plate. A standard curve was generated using 7-amino-4-trifluoromethyl coumarin in the concentration range from 0.15 μM to 5.0 μM. The reactions were read every 0.5 hours using a fluorescence microtiter plate reader set for 390 nm excitation and 538 nm emission for the first 4 hours after which the plates were left at room temperature overnight. One reading was taken the next morning as a final measurement.
Ki determinations were carried out using the above assay system. […] Ki(app) was calculated according to Equation 1: [formula]
The concentration of inhibitors ranged from 75 to 0.067 μM with each inhibitor concentration assayed in duplicate. The Km for the substrate was determined from a standard Lineweaver-Burke plot.

[3] = target: T2, Human Rhinovirus serotype 1A 3C Protease (Human rhinovirus 1A, UniProt P23008); assay: 3C Protease Biochemical Assay (FRET); settings: 30° C., 2-6uM substrate, 416 nM 3CP
T2 construct: used to clone the 3C Protease into the expression vector pET16-b; made in house; host or cells: E. coli BL21-DE3-pLys-S
Procedure: Human Rhinovirus serotype 1A (ATCC) was used to clone the 3C Protease into the expression vector pET16-b and transformed for production into the E. coli strain BL21-DE3-pLys-S. 3C Protease expression was induced with 1 mM IPTG at 25° C. and purified from the soluble protein extract by chromatography on a SourceQ (Pharmacia) followed by gel filtration. HRV 3CP activity was measured by fluorescence resonance energy transfer using a dimodified decapeptide substrate MOC-[…]DNP-NH2 (7-methoxy coumarin-4-acetic acid fluorochrome and dinitrophenol quencher) with a Km value of 16.8 μM. Inhibition was measured as a change in initial velocity (V0) as a function of inhibitor (I) concentration and substrate (S) concentration. […] Fluorescence was monitored by excitation at 328 nm and emission at 393 nm with 10 nm cutoffs. Data were analyzed with the nonlinear regression analysis program EnzFitter (BioSoft) with the equation:
Ki=(I/((VmaxxS)/V0)/Ks)−I−S
Substrate concentrations used were lower than the Km of the substrate (16.8 uM) so no corrections for an S/Km term were used.

T2 sequence (P23008 1515-1697): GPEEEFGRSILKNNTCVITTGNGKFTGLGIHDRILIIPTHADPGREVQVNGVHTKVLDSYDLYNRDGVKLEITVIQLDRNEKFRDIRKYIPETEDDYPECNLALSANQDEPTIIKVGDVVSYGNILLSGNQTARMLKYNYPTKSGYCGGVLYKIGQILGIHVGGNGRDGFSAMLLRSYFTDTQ

Ki [2] [µM]	IC50 [2] [µM]	Percent Activity [2] [%]	SMILES	cysteine protease inhibitory activity (cysteine protease)	IC50 [1] [µM]	CC50 (HeLa-H1 cells) [µM]	also measured
			CC(C)=CC[C@H](O)C1=CC(=O)c2c(O)ccc(O)c2C1=O [alkannin]	exhibit cysteine protease inhibitory activity			
6.16	38.8	−0.4239	O=C(O)CN(CC(=O)O)Cc1cc2c(c(O)c1O)C(=O)c1ccccc1C2=O [cpi0136.0009]		0.2	> 30	
1.24	7.82	7.846	O=C(O)CCNc1ccc(O)c2c1C(=O)c1ccccc1C2=O [cpi0136.0012]		30	> 30	
			CCn1cc(C(=O)O)c(=O)c2ccc(C)nc21 [cpi0176, nalidixic acid, reference compound]				Ki [3]: 195 µM; potency as an antirhinoviral agent relative to potency as an antibiotic agent [1]: 10 fold; TC50 (HeLa-H1 cells): —, and —
			CC(C)=CC[C@@H](O)C1=CC(=O)c2c(O)ccc(O)c2C1=O [shikonin]	exhibit cysteine protease inhibitory activity			
